Data on 32 compounds can be found in US20120115827A1, “3-AMINOBENZAMIDE COMPOUNDS AND VANILLOID RECEPTOR SUBTYPE 1 (VR1) INHIBITORS” (Japan Tobacco Inc., priority 2004, published 2012).

Structures are written as SMILES. Structures can show the parent of a compound that is named as a salt. A value given as a limit tells only on which side of the number the result lay.

This test deals with T1, human VR1 (Homo sapiens, UniProt Q8NER1).
T1 construct: expressed in transfected cells
T1 sequence (Q8NER1 whole entry): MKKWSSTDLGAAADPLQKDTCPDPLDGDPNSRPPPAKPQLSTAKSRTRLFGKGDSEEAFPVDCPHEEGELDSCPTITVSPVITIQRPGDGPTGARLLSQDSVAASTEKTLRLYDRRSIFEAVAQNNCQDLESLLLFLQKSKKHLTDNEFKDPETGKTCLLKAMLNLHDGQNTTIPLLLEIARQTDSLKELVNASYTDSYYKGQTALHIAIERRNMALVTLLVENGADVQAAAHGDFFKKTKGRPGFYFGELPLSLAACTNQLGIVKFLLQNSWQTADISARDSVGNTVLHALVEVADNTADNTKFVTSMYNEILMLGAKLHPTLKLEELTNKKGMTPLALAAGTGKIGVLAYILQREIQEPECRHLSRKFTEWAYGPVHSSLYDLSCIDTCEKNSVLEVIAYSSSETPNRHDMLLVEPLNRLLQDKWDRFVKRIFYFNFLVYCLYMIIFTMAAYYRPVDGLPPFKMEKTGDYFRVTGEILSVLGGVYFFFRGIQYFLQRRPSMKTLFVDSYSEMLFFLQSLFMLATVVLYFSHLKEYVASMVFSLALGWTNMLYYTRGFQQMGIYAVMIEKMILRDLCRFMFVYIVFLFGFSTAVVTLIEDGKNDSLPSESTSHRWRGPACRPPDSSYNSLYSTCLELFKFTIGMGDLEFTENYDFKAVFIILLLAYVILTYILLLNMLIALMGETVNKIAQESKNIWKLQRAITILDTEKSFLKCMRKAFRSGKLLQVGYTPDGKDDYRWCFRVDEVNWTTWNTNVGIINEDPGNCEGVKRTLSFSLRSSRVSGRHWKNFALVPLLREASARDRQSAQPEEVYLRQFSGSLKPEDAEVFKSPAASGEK
Description: Inhibition of Ca2+ entry in cells caused by proton (VR1 agonist). The test is classed as cell-based. The conditions noted are these: Rat glioma (C6BU1) cells stably expressing human VR1; proton stimulation to pH 5.5; Fura 2-AM fluorescence; read-out: In vitro IC50. As to the method:
The assay for evaluation of VR1 inhibition by the inventive compounds will be described below. The assay was intended to evaluate in vitro inhibition of Ca^2+ entry in cells caused by proton, one of the VR1 agonists.
Rat glioma (C6BU1) cells stably expressing human VR1 were suspended in 20 mM MES buffer (at pH 6.8, contg. 20 mM 2-morpholinoethanesulfonate (referred to as MES hereinafter), 115 mM NaCl, 5 mM KCl, 1 mM MgCl2 and 14 mM D-glucose) to make a cell density of 1×10^6 cells/mL. A fluorescent dye, Fura 2-AM solution (Dojindo Corporate, Cat. No. 343-05401) was added to the suspension to make a 5 μM concentration thereof. Further, Pluronic F-127 (Wako Pure Chemical Industries, Ltd., Cat. No. P6866) was added to make a 0.1% content thereof. Then, the suspension was incubated at 37° C. for 30 min. The cells were harvested and washed three times with 20 mM MES buffer. The cells were suspended again to make a cell density of 5×10^5 cells/mL. A 500-μL portion of the suspension was taken with a cuvette (MC MEDICAL, INC., Cat. No. SSR3121), to which […] MES buffer containing 250 mM CaCl2 was added to incorporate Ca^2+ into the cells. At the same time, 5 μL of a test compound solution (in a range of 100 μM to 10 nM in DMSO) was also added to provide a final concentration thereof in a range of 1 μM to 0.1 nM. Alternatively, 5 μl of DMSO was added as control to provide a final concentration of 1% DMSO. The suspension was set in an intracellular ionometer (CAF-110; JASCO) 10 min after those additions. The cells were stimulated with protons by addition of 60 μL of 20 mM MES buffer at pH 1.1 to the suspension to set its pH at 5.5. The activity of the test compound was determined as a difference between the minimum of fluorescence intensity before agonist stimulation and its maximum after the stimulation. The value of IC50 was derived from percentage of inhibition by the test compound compared with the control.
As to `CN(c1cccc(C(=O)Nc2ccc(C(C)(C)C)cc2)c1)c1ncccc1Cl` [Example 1, N-(4-tert-butylphenyl)-3-[N-(3-chloropyridin-2-yl)-N-methyl-amino]benzamide, hydrochloride salt], the IC50 is at most 100 nM.

Take `CN(c1cccc(C(=O)Nc2ccc(C(C)(C)C)cc2)c1)c1ccccn1` [Example 2, N-(4-tert-butylphenyl)-3-[N-(pyridin-2-yl)-N-methyl-amino]benzamide, hydrochloride salt]: the IC50 was in the range of 100 to 1000 nM.

Consider `CCN(c1cccc(C(=O)Nc2ccc(C(C)(C)C)cc2)c1)c1ncccc1Cl` [Example 3, N-(4-tert-butylphenyl)-3-[N-(3-chloropyridin-2-yl)-N-ethyl-amino]benzamide], for which the IC50 is at most 100 nM.

Turning to `COc1ccc(C(=O)Nc2ccc(C(C)(C)C)cc2)cc1N(C)c1ncccc1Cl` [Example 4, N-(4-tert-butylphenyl)-3-[N-(3-chloropyridin-2-yl)-N-methyl]amino-4-methoxybenzamide], the half-maximal inhibitory concentration (IC50) was at most 100 nM.

Turning to `CN(c1cc(C(=O)Nc2ccc(C(C)(C)C)cc2)ccc1Oc1ccccc1)c1ncccc1Cl` [Example 5, N-(4-tert-butylphenyl)-3-[N-(3-chloropyridin-2-yl)-N-methyl]amino-4-phenoxybenzamide], the IC50 is at most 100 nM.

As to `Cc1c(C(=O)Nc2ccc(C(C)(C)C)cc2)cccc1N(C)c1ncccc1Cl` [Example 6, N-(4-tert-butylphenyl)-3-[N-(3-chloropyridin-2-yl)-N-methyl-amino]-2-methylbenzamide], the half-inhibitory concentration (IC50) is at most 100 nM.

On to `Cc1ccc(C(=O)Nc2ccc(C(C)(C)C)cc2)cc1N(C)c1ncccc1Cl` [Example 7, N-(4-tert-butylphenyl)-3-[N-(3-chloropyridin-2-yl)-N-methyl-amino]-4-methylbenzamide], for which the IC50 was at most 100 nM.

On to `CN(c1cc(C(=O)Nc2ccc(C(C)(C)C)cc2)ccc1-c1ccccc1)c1ncccc1Cl` [Example 8, N-(4-tert-butylphenyl)-3-[N-(3-chloropyridin-2-yl)-N-methyl-amino]-4-phenylbenzamide], for which the IC50 was at most 100 nM.

For `CN(c1cc(C(=O)Nc2ccc(C(C)(C)C)cc2)ccc1F)c1ncccc1Cl` [Example 9, N-(4-tert-butylphenyl)-3-[N-(3-chloropyridin-2-yl)-N-methyl-amino]-4-fluorobenzamide], the IC50 is at most 100 nM.

On to `CCN(c1cc(C(=O)Nc2ccc(C(C)(C)C)cc2)ccc1OC)c1ncccc1Cl` [Example 10, N-(4-tert-butylphenyl)-3-[N-(3-chloropyridin-2-yl)-N-ethyl]amino-4-methoxybenzamide], for which the IC50 is at most 100 nM.

Consider `COc1ccc(C(=O)Nc2ccc(C(C)(C)C)cc2)cc1N(c1ncccc1Cl)C(C)C` [Example 11, N-(4-tert-butylphenyl)-3-[N-(3-chloropyridin-2-yl)-N-isopropyl]amino-4-methoxybenzamide], for which the IC50 is at most 100 nM.

Turning to `CN(c1cc(C(=O)Nc2ccc(C(C)(C)C)cc2)ccc1Cl)c1ncccc1Cl` [Example 12, N-(4-tert-butylphenyl)-4-chloro-3-[N-(3-chloropyridin-2-yl)-N-methyl-amino]benzamide], the IC50 was at most 100 nM.

Turning to `CN(c1ccccn1)c1cc(C(=O)Nc2ccc(C(C)(C)C)cc2)ccc1Cl` [Example 13, N-(4-tert-butylphenyl)-4-chloro-3-[N-(pyridin-2-yl)-N-methyl-amino]benzamide], the IC50 was 100 to 1000 nM.

On to `COCOc1ccc(C(=O)Nc2ccc(C(C)(C)C)cc2)cc1N(C)c1ncccc1Cl` [Example 14, N-(4-tert-butylphenyl)-3-[N-(3-chloropyridin-2-yl)-N-methyl-amino]-4-methoxymethyloxybenzamide], for which the IC50 is at most 100 nM.

Regarding `CN(c1cc(C(=O)Nc2ccc(C(C)(C)C)cc2)ccc1O)c1ncccc1Cl` [Example 15, N-(4-tert-butylphenyl)-3-[N-(3-chloropyridin-2-yl)-N-methyl-amino]-4-hydroxybenzamide], the IC50 is at most 100 nM.

In the case of `CC(C)Oc1ccc(C(=O)Nc2ccc(C(C)(C)C)cc2)cc1N(C)c1ncccc1Cl` [Example 16, N-(4-tert-butylphenyl)-3-[N-(3-chloropyridin-2-yl)-N-methyl-amino]-4-isopropoxybenzamide], the IC50 was at most 100 nM.

As to `CN1c2cc(C(=O)Nc3ccc(C(C)(C)C)cc3)ccc2Oc2cccnc21` [Example 17, N-(4-tert-butylphenyl)-10-methyl-10H-benzo[b]pyrido[2,3-e][1,4]oxazine-8-carboxamide], the IC50 was at most 100 nM.

Consider `CN(c1cc(C(=O)Nc2ccc(C(C)(C)C)cc2)ccc1OCCO)c1ncccc1Cl` [Example 18, N-(4-tert-butylphenyl)-3-[N-(3-chloropyridin-2-yl)-N-methyl-amino]-4-(2-hydroxyethyl)oxybenzamide], for which the IC50 was at most 100 nM.

As to `CN(c1cc(C(=O)Nc2ccc(C(C)(C)C)cc2)ccc1OCC(N)=O)c1ncccc1Cl` [Example 20, N-(4-tert-butylphenyl)-4-carbamoylmethyloxy-3-[N-(3-chloropyridin-2-yl)-N-methyl-amino]benzamide], the IC50 is at most 100 nM.

For `CNC(=O)COc1ccc(C(=O)Nc2ccc(C(C)(C)C)cc2)cc1N(C)c1ncccc1Cl` [Example 21, N-(4-tert-butylphenyl)-3-[N-(3-chloropyridin-2-yl)-N-methyl-amino]-4-(N-methylcarbamoylmethyl)oxybenzamide], the IC50 is at most 100 nM.

As to `CN(C)C(=O)COc1ccc(C(=O)Nc2ccc(C(C)(C)C)cc2)cc1N(C)c1ncccc1Cl` [Example 22, N-(4-tert-butylphenyl)-3-[N-(3-chloropyridin-2-yl)-N-methyl-amino]-4-(N,N-dimethylcarbamoylmethyl)oxybenzamide], the IC50 is 100 to 1000 nM.

For the compound `CN(c1cc(Cl)cc(C(=O)Nc2ccc(C(C)(C)C)cc2)c1)c1ncccc1Cl` [Example 23, N-(4-tert-butylphenyl)-5-chloro-3-[N-(3-chloropyridin-2-yl)-N-methyl]aminobenzamide], the 50% inhibitory concentration (IC50) is at most 100 nM.

Take `CN(c1ccc(Cl)c(C(=O)Nc2ccc(C(C)(C)C)cc2)c1)c1ncccc1Cl` [Example 24, N-(4-tert-butylphenyl)-2-chloro-5-[N-(3-chloropyridin-2-yl)-N-methyl]aminobenzamide]: the IC50 lay in the range of 100 to 1000 nM.

Regarding `CN(c1cccc(C(=O)Nc2ccc(C(C)(C)C)cc2)c1O)c1ncccc1Cl` [Example 25, N-(4-tert-butylphenyl)-3-[N-(3-chloropyridin-2-yl)-N-methyl]amino-2-hydroxybenzamide], the IC50 is 100 to 1000 nM.

Regarding `COc1c(C(=O)Nc2ccc(C(C)(C)C)cc2)cccc1N(C)c1ncccc1Cl` [Example 26, N-(4-tert-butylphenyl)-3-[N-(3-chloropyridin-2-yl)-N-methyl]amino-2-methoxybenzamide], the IC50 is at most 100 nM.

For the compound `CN(c1cccc(C(=O)Nc2ccc(C(C)(C)C)cc2)c1OCCO)c1ncccc1Cl` [Example 27, N-(4-tert-butylphenyl)-3-[N-(3-chloropyridin-2-yl)-N-methyl-amino]-2-(2-hydroxyethyl)oxybenzamide], the IC50 is at most 100 nM.

`COc1ccc(C(=O)Nc2ccc(C(C)(C)C)cc2)cc1N(CCO)c1ncccc1Cl` [Example 28, N-(4-tert-butylphenyl)-3-[N-(3-chloropyridin-2-yl)-N-(2-hydroxyethyl)]amino-4-methoxybenzamide]: the IC50 was at most 100 nM.

For `COCCN(c1cc(C(=O)Nc2ccc(C(C)(C)C)cc2)ccc1Cl)c1ncccc1Cl` [Example 29, N-(4-tert-butylphenyl)-4-chloro-3-[N-(3-chloropyridin-2-yl)-N-(2-methoxyethyl)amino]benzamide], the IC50 was at most 100 nM.

As to `CC(C)(C)c1ccc(NC(=O)c2ccc(Cl)c(N(CCO)c3ncccc3Cl)c2)cc1` [Example 30, N-(4-tert-butylphenyl)-4-chloro-3-[N-(3-chloropyridin-2-yl)-N-(2-hydroxyethyl)amino]benzamide], the half-inhibitory concentration (IC50) is at most 100 nM.

Regarding `O=C(Nc1ccc(C(F)(F)F)cc1)c1ccc(Cl)c(N(CCO)c2ncccc2Cl)c1` [Example 31, 4-chloro-3-[N-(3-chloropyridin-2-yl)-N-(2-hydroxyethyl)amino]-N-(4-trifluoromethylphenyl)-benzamide, hydrochloride salt], the IC50 is at most 100 nM.

As to `O=C(Nc1ccc(OC(F)(F)F)cc1)c1ccc(Cl)c(N(CCO)c2ncccc2Cl)c1` [Example 32, 4-chloro-3-[N-(3-chloropyridin-2-yl)-N-(2-hydroxyethyl)amino]-N-(4-trifluoromethoxyphenyl)benzamide, hydrochloride salt], the IC50 is at most 100 nM.

With `CN(c1cccc(C(=O)Nc2ccc(C(C)(C)C)cc2)c1)c1ccccc1Cl` [Example 33, N-(4-tert-butylphenyl)-3-[N-(2-chlorophenyl)-N-methyl-amino]benzamide], the IC50 was at most 100 nM.
